For 24 molecules, IC50 results are on record in patent US9458153B2, “Dihydroquinolizinones for the treatment and prophylaxis of hepatitis B virus infection” (Hoffmann-La Roche Inc., priority 2014, dated 2016).

Molecules are shown by their SMILES.

This assay concerns HBsAg. In words: HBsAg assay (chemiluminescence immunoassay of secreted HBsAg in HepG2.2.15 culture supernatant). The conditions noted are these: HepG2.2.15 cells, CLIA kit. The assay is classed as cell-based, HBV. A digest of the protocol:
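IC50 came from dose-response curves of HBsAg in culture supernatant, measured semi-quantitatively by chemiluminescent immunoassay. The HBV-producing HepG2.2.15 line was dosed in duplicate with a three-fold compound dilution series, with DMSO at 1% final and DMSO alone as the no-drug control.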

[1] abbreviates: HBsAg secretion reduced by 50% vs no drug control.
[2] abbreviates: Hepatitis B virus, HepG2.2.15, HBsAg secretion reduced by 50% vs no drug control.

In the case of `COc1cc2c(cc1OCCCS(C)(=O)=O)CC(C(C)(C)C)n1cc(C(=O)O)c(=O)cc1-2` (single isomer, unassigned; (-)) [Example 188, (−)-6-tert-butyl-10-methoxy-9-(3-methylsulfonylpropoxy)-2-oxo-6,7-dihydrobenzo[a]quinolizine-3-carboxylic acid], it took 0.22 µM to reach half-maximal inhibition under setting [1] (IC50). Under setting [1], `COc1cc2c(cc1OCCN1CCOCC1)CC(C(C)(C)C)n1cc(C(=O)O)c(=O)cc1-2` (single isomer, unassigned; (-)) [Example 191, (−)-6-tert-butyl-10-methoxy-9-(2-morpholinoethoxy)-2-oxo-6,7-dihydrobenzo[a]quinolizine-3-carboxylic acid] had an IC50 of 0.19 µM. Still for that read-out and setting: to `COc1cc2c(cc1OCCCN1CCOCC1)CC(C(C)(C)C)n1cc(C(=O)O)c(=O)cc1-2` (single isomer, unassigned; (-)) [Example 194, (−)-6-tert-butyl-10-methoxy-9-(3-morpholinopropoxy)-2-oxo-6,7-dihydrobenzo[a]quinolizine-3-carboxylic acid] belongs 0.27 µM; to `COCCCOc1cc2c(cc1OC)-c1cc(=O)c(C(=O)O)cn1C(CC(F)(F)F)C2` (single isomer, unassigned; (-)) [Example 201, (−)-10-methoxy-9-(3-methoxypropoxy)-2-oxo-6-(2,2,2-trifluoroethyl)-6,7-dihydrobenzo[a]quinolizine-3-carboxylic acid], 14.2 µM; to `COCCCOc1cc2c(cc1Cl)-c1cc(=O)c(C(=O)O)cn1C(C(C)(C)C)C2` (single isomer, unassigned; (-)) [Example 204, (−)-6-tert-butyl-10-chloro-9-(3-methoxypropoxy)-2-oxo-6,7-dihydrobenzo[a]quinolizine-3-carboxylic acid], 0.14 µM. For the molecule `COCCCOc1cc2c(cc1Cl)-c1cc(=O)c(C(=O)O)cn1C(C1(C)CC1)C2` (single isomer, unassigned; (-)) [Example 207, (−)-10-chloro-9-(3-methoxypropoxy)-6-(1-methylcyclopropyl)-2-oxo-6,7-dihydrobenzo[a]quinolizine-3-carboxylic acid], under setting [1], the IC50 turned out to be 0.04 µM. The molecule `COCCCOc1cc2c(cc1OC)-c1cc(=O)c(C(=O)O)cn1C(C1(C)CC1)C2` (single isomer, unassigned; (-)) [Example 210, (−)-10-methoxy-9-(3-methoxypropoxy)-6-(1-methylcyclopropyl)-2-oxo-6,7-dihydrobenzo[a]quinolizine-3-carboxylic acid] displayed an IC50 under setting [1] of 0.092 µM. Same read-out and setting: to `COCCCOc1cc2c(c(F)c1F)-c1cc(=O)c(C(=O)O)cn1C(C(C)C)C2` (single isomer, unassigned; (-)) [Example 215, (−)-10,11-difluoro-6-isopropyl-9-(3-methoxypropoxy)-2-oxo-6,7-dihydrobenzo[a]quinolizine-3-carboxylic acid] belongs 1.14 µM. Under setting [2], `COc1cc2c(cc1OCc1ccccc1)CC(C)n1cc(C(=O)O)c(=O)cc1-2` (stereo not drawn) [Example 1, 9-benzyloxy-10-methoxy-6-methyl-2-oxo-6,7-dihydrobenzo[a]quinolizine-3-carboxylic acid] displayed a concentration for half-maximal inhibition (IC50) of 0.013 µM.

`CCOc1cc2c(cc1OC)-c1cc(=O)c(C(=O)O)cn1C(C)C2` (stereo not drawn) [Example 4, 9-ethoxy-10-methoxy-6-methyl-2-oxo-6,7-dihydrobenzo[a]quinolizine-3-carboxylic acid] returned a concentration for half-maximal inhibition (IC50) under setting [2] of 0.098 µM. For `CCC1Cc2cc(OCc3ccccc3)c(OC)cc2-c2cc(=O)c(C(=O)O)cn21` (stereo not drawn) [Example 8, 9-benzyloxy-6-ethyl-10-methoxy-2-oxo-6,7-dihydrobenzo[a]quinolizine-3-carboxylic acid], the 50% inhibitory concentration (IC50) under setting [1] is 0.15 µM. Under setting [2], `CCC1Cc2cc(OCCc3ccccc3)c(OC)cc2-c2cc(=O)c(C(=O)O)cn21` (stereo not drawn) [Example 14, 6-ethyl-10-methoxy-2-oxo-9-(2-phenylethoxy)-6,7-dihydrobenzo[a]quinolizine-3-carboxylic acid] gave an IC50 of 0.014 µM. As to `CCCCOc1cc2c(cc1OC)-c1cc(=O)c(C(=O)O)cn1C(CC)C2` (stereo not drawn) [Example 15, 9-butoxy-6-ethyl-10-methoxy-2-oxo-6,7-dihydrobenzo[a]quinolizine-3-carboxylic acid], half-maximal inhibition under setting [2] (IC50) required 0.016 µM.

Molecule `CCC1Cc2cc(OCCC3CCCCC3)c(OC)cc2-c2cc(=O)c(C(=O)O)cn21` (stereo not drawn) [Example 16, 9-(2-cyclohexylethoxy)-6-ethyl-10-methoxy-2-oxo-6,7-dihydrobenzo[a]quinolizine-3-carboxylic acid] gave an IC50 under setting [2] of 0.015 µM.

As to `C#CCOc1cc2c(cc1OC)-c1cc(=O)c(C(=O)O)cn1C(CC)C2` (stereo not drawn) [Example 17, 6-ethyl-10-methoxy-2-oxo-9-prop-2-ynoxy-6,7-dihydrobenzo[a]quinolizine-3-carboxylic acid], inhibition under setting [2] was half-maximal at 0.19 µM (IC50). In turn, `CCC1Cc2cc(OCC(=O)N3CCCC3)c(OC)cc2-c2cc(=O)c(C(=O)O)cn21` (stereo not drawn) [Example 18, 6-ethyl-10-methoxy-2-oxo-9-(2-oxo-2-pyrrolidin-1-yl-ethoxy)-6,7-dihydrobenzo[a]quinolizine-3-carboxylic acid] returned an IC50 under setting [2] of 9.47 µM. The molecule `CCC1Cc2cc(OCCOCCOC)c(OC)cc2-c2cc(=O)c(C(=O)O)cn21` (stereo not drawn) [Example 19, 6-ethyl-10-methoxy-9-[2-(2-methoxyethoxyl)ethoxy]-2-oxo-6,7-dihydrobenzo[a]quinolizine-3-carboxylic acid] gave an IC50 under setting [2] of 0.25 µM. Consider `CCC1Cc2cc(OCCN3CCOCC3)c(OC)cc2-c2cc(=O)c(C(=O)O)cn21` (stereo not drawn) [Example 20, 6-ethyl-10-methoxy-9-(2-morpholinoethoxy)-2-oxo-6,7-dihydrobenzo[a]quinolizine-3-carboxylic acid], for which the half-maximal inhibitory concentration (IC50) under setting [2] worked out at 0.22 µM. For the molecule `CCC1Cc2cc(OCCO)c(OC)cc2-c2cc(=O)c(C(=O)O)cn21` (stereo not drawn) [Example 21, 6-ethyl-9-(2-hydroxyethoxy)-10-methoxy-2-oxo-6,7-dihydrobenzo[a]quinolizine-3-carboxylic acid], under setting [2], the IC50 stood at 0.45 µM.

In turn, `CCC1Cc2cc(OCC(C)(C)CO)c(OC)cc2-c2cc(=O)c(C(=O)O)cn21` (stereo not drawn) [Example 22, 6-ethyl-9-(3-hydroxy-2,2-dimethyl-propoxy)-10-methoxy-2-oxo-6,7-dihydrobenzo[a]quinolizine-3-carboxylic acid] registered an IC50 under setting [1] of 0.039 µM. The molecule `CCC1Cc2cc(OCCCO)c(OC)cc2-c2cc(=O)c(C(=O)O)cn21` (stereo not drawn) [Example 25, 6-ethyl-9-(3-hydroxypropoxy)-10-methoxy-2-oxo-6,7-dihydrobenzo[a]quinolizine-3-carboxylic acid] yielded an IC50 under setting [2] of 0.155 µM. Turning to `CCC1Cc2cc(OCCn3ccnc3)c(OC)cc2-c2cc(=O)c(C(=O)O)cn21` (stereo not drawn) [Example 26, 6-ethyl-9-(2-imidazol-1-ylethoxy)-10-methoxy-2-oxo-6,7-dihydrobenzo[a]quinolizine-3-carboxylic acid], the IC50 under setting [2] is 1.65 µM. In turn, `CCC1Cc2cc(OCCOC)c(OC)cc2-c2cc(=O)c(C(=O)O)cn21` (stereo not drawn) [Example 27, 6-ethyl-10-methoxy-9-(2-methoxyethoxy)-2-oxo-6,7-dihydrobenzo[a]quinolizine-3-carboxylic acid] registered an IC50 under setting [1] of 0.056 µM. On to `CCOc1cc2c(cc1OC)-c1cc(=O)c(C(=O)O)cn1C(CC)C2` (stereo not drawn) [Example 36, 9-ethoxy-6-ethyl-10-methoxy-2-oxo-6,7-dihydrobenzo[a]quinolizine-3-carboxylic acid], for which, under setting [1], the midpoint of inhibition, the IC50, lay at 0.053 µM.

As a reminder, the IC50 is the concentration that inhibits the measured activity by half. Higher therefore signals a need for much substance.
